{
  "source": "patent US20210236497A1",
  "about": "(priority 2020, published 2021)",
  "key": {"[1]": {"tested_on": "nCoV-2019 (SARS-CoV2) infected Vero E6 cells", "assay": "microbe, parasite or virus in culture", "assay_type": "cell-based, SARS-CoV-2", "settings": "for inhibition at 0.075 µM: Severe acute respiratory syndrome coronavirus 2, Vero C1008, 0.075 μM"}, "[2]": {"settings": "mice; following 12 days post injection; cited from earlier work"}, "[3]": {"settings": "cited from earlier work; for Observed toxic effect: humans"}, "[4]": {"settings": "African green monkeys; 1.6 mg/kg x 14 days; total dose 22.4; cited from earlier work"}, "[5]": {"settings": "Rats; total of multi dose; cited from earlier work"}},
  "note": "Where a name gives a salt, the structure may show the parent alone. Read-outs that look alike come from different tables or passages of the source.",
  "data": [
    {"smiles": "NC(=O)c1cn([C@@H]2O[C@H](CO)[C@@H](O)[C@H]2O)c2ncnc(N)c12", "note": "[Oya1, 4-amino-7-((2R,3R,4S,5R)-3,4-dihydroxy-5-(hydroxymethyl)tetrahydrofuran-2-yl)-7H-pyrrolo[2,3-d]pyrimidine-5-carboxamide]", "values": [
      {"measurement": "average toxicity margin or selectivity index", "setting": "[1]", "value": 4.8},
      {"measurement": "toxicity margin or selectivity index, high", "setting": "[1]", "value": 8.2},
      {"measurement": "toxicity margin or selectivity index, low", "setting": "[1]", "value": 3.1},
      {"measurement": "fold increase in activity for Oya1 over chlorpromazine HCl", "setting": "[1]; MOI 0.6, FIG. 4 and FIG. 5", "value": 1000, "unit": "fold"},
      {"measurement": "fold increase in activity for Oya1 over chlorpromazine HCl", "setting": "[1]; MOI 1.3, FIG. 8 and FIG. 9", "value": 1000, "unit": "fold"},
      {"measurement": "inhibition at 0.075 µM", "setting": "[1]; MOI 0.6 Plate 1", "value": 95.5, "unit": "%"},
      {"measurement": "inhibition at 0.075 µM", "setting": "[1]; MOI 0.6 Plate 2", "value": 91.9, "unit": "%"},
      {"measurement": "inhibition at 0.075 µM", "setting": "[1]; Plate 1", "value": 93.8, "unit": "%"},
      {"measurement": "inhibition at 0.075 µM", "setting": "[1]; Plate 2", "value": 99.4, "unit": "%"},
      {"measurement": "amount cleared", "setting": "[2]", "value": 40, "unit": "%"},
      {"measurement": "anti-cancer activity", "setting": "[3]; Phase I clinical trials during the 1960's", "value": "inactive against cancer"},
      {"measurement": "tolerability in humans", "setting": "[3]; Phase I clinical trials, dosing levels of Table 8", "value": "well tolerated"},
      {"measurement": "Observed toxic effect", "setting": "[3]; daily, highest dosing regimen 120 μg/kg/day x 41 days", "value": 0},
      {"measurement": "Observed toxic effect", "setting": "[3]; thrice weekly, highest dosing regimen 50-250 μg/kg/day x 45 days", "value": 0},
      {"measurement": "Observed toxic effect", "setting": "[3]; weekly, highest dosing regimen 200 μg/kg/day x 150 days", "value": 0},
      {"measurement": "Effect", "setting": "[4]", "value": "lethal"},
      {"measurement": "LD50, total dose", "setting": "[5]", "value": 1.2, "unit": "mg/kg"}
    ]},
    {"smiles": "NC(=O)c1cn([C@@H]2O[C@H](CO)[C@@H](O)[C@H]2O)c2ncnc(N)c12", "note": "[Oya2, 4-amino-7-((2R,3R,4S,5R)-3,4-dihydroxy-5-(hydroxymethyl)tetrahydrofuran-2-yl)-7H-pyrrolo[2,3-d]pyrimidine-5-carboxamide hydrochloride]", "values": [
      {"measurement": "inhibition at 0.0094 µM", "setting": "[1]; Severe acute respiratory syndrome coronavirus 2, Vero C1008, 0.0094 μM, MOI 0.6 Plate 2, Table 4C", "value": 33.9, "unit": "%"},
      {"measurement": "inhibition at 0.0375 µM", "setting": "[1]; Severe acute respiratory syndrome coronavirus 2, Vero C1008, 0.0375 μM, Plate 2, Table 6C", "value": 12.2, "unit": "%"},
      {"measurement": "inhibition at 0.075 µM", "setting": "[1]; MOI 0.6 Plate 1, Table 3C", "value": 45.6, "unit": "%"},
      {"measurement": "inhibition at 0.075 µM", "setting": "[1]; MOI 0.6 Plate 2, Table 4C", "value": 83.1, "unit": "%"},
      {"measurement": "inhibition at 0.15 µM", "setting": "[1]; Severe acute respiratory syndrome coronavirus 2, Vero C1008, 0.15 μM, MOI 0.6 Plate 1, Table 3C", "value": 90.1, "unit": "%"}
    ]}
  ]
}
